According to article PMC9403976, “Elucidating the path to Plasmodium prolyl-tRNA synthetase inhibitors that overcome halofuginone resistance” (Nature Communications, 2022):
Values joined by “and” are separate entries in the source; they are usually repeats but may differ in a detail not shown here. Identical values can stand only once. Like-named read-outs stand apart in the source and are kept apart here.

Tests used:
[1] = molecular target: HsProRS (Homo sapiens, UniProt P07814); test: TR-FRET ligand displacement assay with tracer MAT379 (CoraFluor-1-Halo and anti-His6 antibody formats); format: binding; parameters: made in house; host or cells: E. coli SoluBL-21; conditions: for TR-FRET dose-response, normalized signal (SI Fig 11): individual replicates
Sequence of HsProRS (P07814 996-1512): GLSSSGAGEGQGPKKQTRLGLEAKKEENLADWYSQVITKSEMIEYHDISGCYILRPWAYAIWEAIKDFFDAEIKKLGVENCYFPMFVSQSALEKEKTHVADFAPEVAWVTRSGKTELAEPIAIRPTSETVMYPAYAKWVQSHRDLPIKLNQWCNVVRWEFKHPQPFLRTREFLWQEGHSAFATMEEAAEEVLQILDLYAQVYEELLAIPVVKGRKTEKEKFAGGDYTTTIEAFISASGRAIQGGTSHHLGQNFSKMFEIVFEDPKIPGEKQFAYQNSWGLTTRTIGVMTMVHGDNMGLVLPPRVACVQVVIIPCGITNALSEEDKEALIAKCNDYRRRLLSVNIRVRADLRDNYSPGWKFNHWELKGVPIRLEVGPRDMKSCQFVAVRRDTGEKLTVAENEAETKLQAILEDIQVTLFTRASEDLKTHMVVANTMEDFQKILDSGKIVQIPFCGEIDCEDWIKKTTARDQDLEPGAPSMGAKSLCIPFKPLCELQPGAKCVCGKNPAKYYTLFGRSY

[2] = molecular target: T1, PfcProRS (Plasmodium falciparum, UniProt Q8I5R7); format: binding; conditions: single replicates
T1 construct: made in house; host or cells: E. coli SoluBL-21
T1 sequence (Q8I5R7 249-746): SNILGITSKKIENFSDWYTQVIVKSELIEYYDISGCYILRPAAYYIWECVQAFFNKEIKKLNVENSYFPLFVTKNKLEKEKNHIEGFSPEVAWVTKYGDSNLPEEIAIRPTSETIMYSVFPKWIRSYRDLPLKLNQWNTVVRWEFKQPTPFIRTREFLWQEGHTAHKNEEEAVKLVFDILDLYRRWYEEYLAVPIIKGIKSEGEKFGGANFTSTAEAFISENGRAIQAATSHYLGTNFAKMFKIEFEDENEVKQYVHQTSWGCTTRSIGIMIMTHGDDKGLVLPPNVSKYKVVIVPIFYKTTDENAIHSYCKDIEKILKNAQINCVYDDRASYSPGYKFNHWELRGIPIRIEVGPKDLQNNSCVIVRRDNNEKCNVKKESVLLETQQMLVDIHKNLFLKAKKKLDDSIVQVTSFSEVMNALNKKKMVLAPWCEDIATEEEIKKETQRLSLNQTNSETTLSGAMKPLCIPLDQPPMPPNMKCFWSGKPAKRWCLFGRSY

[3] = tested on: P. falciparum Dd2-2D4; test: P. falciparum asexual blood stage (ABS) growth assay, SYBR Green, 72 h, wild-type parasites; format: cell-based, Plasmodium falciparum; conditions: Plasmodium falciparum, DD2; SI Fig 16b; values on -log scale; read-out: ABS - Dd2-2D4 (converted)

`CC(C)(C)OC(=O)NC1(C(=O)Nc2nccnc2C(=O)NC2Cc3ccccc3C2)CCCCC1` [compound 16] was tested, and the IC50 [1] was > 10 µM, the “HsProRS % signal at 10 μM, + 100 μM proline” value ([1]; + 100 μM proline, 10 μM) was 70.7% and the “normalized TR-FRET ligand displacement signal, dose-response replicates (SI Fig 6)” value ([1]; Log[inhibitor] (M) -5.000) was 4.34E-01 and 4.81E-01 and 6.11E-01. The “TR-FRET dose-response, normalized signal (SI Fig 11)” value ([1]; Log[inhibitor] (M) -5.000) was 8.52E-01 and 8.40E-01 and 8.43E-01, the “normalized TR-FRET ligand displacement signal, dose-response replicates (SI Fig 6)” value ([1]; Log[inhibitor] (M) -5.301) was 6.93E-01 and 7.38E-01 and 8.04E-01 and the “TR-FRET dose-response, normalized signal (SI Fig 11)” value ([1]; Log[inhibitor] (M) -5.301) was 9.27E-01 and 9.08E-01 and 9.74E-01. The “normalized TR-FRET ligand displacement signal, dose-response replicates (SI Fig 6)” value ([1]; Log[inhibitor] (M) -5.601) was 9.79E-01 and 9.61E-01 and 8.02E-01, the “TR-FRET dose-response, normalized signal (SI Fig 11)” value ([1]; Log[inhibitor] (M) -5.601) was 9.47E-01 and 9.15E-01 and 9.10E-01 and the “normalized TR-FRET ligand displacement signal, dose-response replicates (SI Fig 6)” value ([1]; Log[inhibitor] (M) -5.904) was 1.00E+00 and 9.00E-01 and 9.53E-01. For the same compound, the “TR-FRET dose-response, normalized signal (SI Fig 11)” value ([1]; Log[inhibitor] (M) -5.904) was 9.81E-01 and 1.01E+00 and 9.64E-01, the “normalized TR-FRET ligand displacement signal, dose-response replicates (SI Fig 6)” value ([1]; Log[inhibitor] (M) -6.208) was 1.01E+00 and 9.68E-01 and 8.67E-01 and the “TR-FRET dose-response, normalized signal (SI Fig 11)” value ([1]; Log[inhibitor] (M) -6.208) was 9.74E-01 and 9.73E-01 and 9.58E-01. The “normalized TR-FRET ligand displacement signal, dose-response replicates (SI Fig 6)” value ([1]; Log[inhibitor] (M) -6.509) was 8.93E-01 and 9.31E-01 and 9.89E-01, the “TR-FRET dose-response, normalized signal (SI Fig 11)” value ([1]; Log[inhibitor] (M) -6.509) was 9.98E-01 and 9.53E-01 and 9.97E-01 and the “normalized TR-FRET ligand displacement signal, dose-response replicates (SI Fig 6)” value ([1]; Log[inhibitor] (M) -6.796) was 9.58E-01 and 1.05E+00 and 1.01E+00. For the same compound, the “TR-FRET dose-response, normalized signal (SI Fig 11)” value ([1]; Log[inhibitor] (M) -6.796) was 9.61E-01 and 9.66E-01 and 9.67E-01, the “normalized TR-FRET ligand displacement signal, dose-response replicates (SI Fig 6)” value ([1]; Log[inhibitor] (M) -7.108) was 9.61E-01 and 9.43E-01 and 9.87E-01 and the “TR-FRET dose-response, normalized signal (SI Fig 11)” value ([1]; Log[inhibitor] (M) -7.108) was 9.51E-01 and 9.57E-01 and 9.59E-01. The “normalized TR-FRET ligand displacement signal, dose-response replicates (SI Fig 6)” value ([1]; Log[inhibitor] (M) -7.409) was 1.08E+00 and 1.02E+00 (2×), the “TR-FRET dose-response, normalized signal (SI Fig 11)” value ([1]; Log[inhibitor] (M) -7.409) was 9.88E-01 and 8.98E-01 and 1.00E+00 and the “normalized TR-FRET ligand displacement signal, dose-response replicates (SI Fig 6)” value ([1]; Log[inhibitor] (M) -7.710) was 9.30E-01 and 9.73E-01 and 8.91E-01. The “TR-FRET dose-response, normalized signal (SI Fig 11)” value ([1]; Log[inhibitor] (M) -7.710) was 9.77E-01 and 9.48E-01 and 9.54E-01, the “normalized TR-FRET ligand displacement signal, dose-response replicates (SI Fig 6)” value ([1]; Log[inhibitor] (M) -8.000) was 9.09E-01 and 9.96E-01 and 8.17E-01 and the “TR-FRET dose-response, normalized signal (SI Fig 11)” value ([1]; Log[inhibitor] (M) -8.000) was 9.83E-01 and 9.29E-01 and 9.65E-01. For the same compound, the “normalized TR-FRET ligand displacement signal, dose-response replicates (SI Fig 6)” value ([1]; Log[inhibitor] (M) -8.301) was 9.56E-01 and 8.69E-01 and 9.45E-01, the “TR-FRET dose-response, normalized signal (SI Fig 11)” value ([1]; Log[inhibitor] (M) -8.301) was 1.00E+00 and 1.01E+00 and 9.30E-01 and the “normalized TR-FRET ligand displacement signal, dose-response replicates (SI Fig 6)” value ([1]; Log[inhibitor] (M) -8.602) was 9.44E-01 and 9.32E-01 and 1.00E+00. The “TR-FRET dose-response, normalized signal (SI Fig 11)” value ([1]; Log[inhibitor] (M) -8.602) was 9.93E-01 and 9.41E-01 and 1.01E+00, the “normalized TR-FRET ligand displacement signal, dose-response replicates (SI Fig 6)” value ([1]; Log[inhibitor] (M) -9.000) was 8.94E-01 and 8.85E-01 and 9.67E-01 and the “TR-FRET dose-response, normalized signal (SI Fig 11)” value ([1]; Log[inhibitor] (M) -9.000) was 9.74E-01 and 9.63E-01 and 9.89E-01. For the same compound, the “normalized TR-FRET ligand displacement signal, dose-response replicates (SI Fig 6)” value ([1]; Log[inhibitor] (M) -9.301) was 1.12E+00 and 1.00E+00 and 9.62E-01, the “TR-FRET dose-response, normalized signal (SI Fig 11)” value ([1]; Log[inhibitor] (M) -9.301) was 9.82E-01 and 9.33E-01 and 9.53E-01 and the “HsProRS % signal at 10 μM” value ([1]; no added proline/ATP (-), 10 μM) was 84.5%. The IC50 ([1]; read-out: HsProRS IC50 + 100 μM proline, + 100 μM proline) was > 10 µM, the “dose-response signal (normalized), SI Fig 8” value ([2]; Log[inhibitor] (M) -5.000) was 6.20E-01 and 5.27E-01 and 6.63E-01 and the “dose-response signal (normalized), SI Fig 8” value ([2]; Log[inhibitor] (M) -5.301) was 7.82E-01 and 8.01E-01 and 7.78E-01. The “dose-response signal (normalized), SI Fig 8” value ([2]; Log[inhibitor] (M) -5.601) was 9.11E-01 and 9.60E-01 and 1.00E+00, the “dose-response signal (normalized), SI Fig 8” value ([2]; Log[inhibitor] (M) -5.904) was 1.10E+00 and 9.14E-01 and 1.01E+00 and the “dose-response signal (normalized), SI Fig 8” value ([2]; Log[inhibitor] (M) -6.208) was 9.01E-01 and 9.36E-01 and 9.23E-01. For the same compound, the “dose-response signal (normalized), SI Fig 8” value ([2]; Log[inhibitor] (M) -6.509) was 1.06E+00 and 9.75E-01 and 1.11E+00, the “dose-response signal (normalized), SI Fig 8” value ([2]; Log[inhibitor] (M) -6.796) was 9.95E-01 (2×) and 1.12E+00 and the “dose-response signal (normalized), SI Fig 8” value ([2]; Log[inhibitor] (M) -7.108) was 9.41E-01 and 8.82E-01 and 1.04E+00. For the same compound, the “dose-response signal (normalized), SI Fig 8” value ([2]; Log[inhibitor] (M) -7.409) was 1.04E+00 and 1.02E+00 and 9.01E-01, the “dose-response signal (normalized), SI Fig 8” value ([2]; Log[inhibitor] (M) -7.710) was 9.65E-01 and 9.90E-01 and 1.00E+00 and the “dose-response signal (normalized), SI Fig 8” value ([2]; Log[inhibitor] (M) -8.000) was 9.92E-01 and 8.87E-01 and 9.29E-01. For the same compound, the “dose-response signal (normalized), SI Fig 8” value ([2]; Log[inhibitor] (M) -8.301) was 9.41E-01 and 9.84E-01 and 9.99E-01, the “dose-response signal (normalized), SI Fig 8” value ([2]; Log[inhibitor] (M) -8.602) was 9.39E-01 and 9.44E-01 and 1.00E+00 and the “dose-response signal (normalized), SI Fig 8” value ([2]; Log[inhibitor] (M) -9.000) was 9.16E-01 and 9.94E-01 and 9.86E-01. For the same compound, the “dose-response signal (normalized), SI Fig 8” value ([2]; Log[inhibitor] (M) -9.301) was 9.11E-01 and 9.01E-01 and 9.58E-01 and the EC50 [3] was 6.11 µM.
